# Measured values taken from patent US10266544B2, “Aryl substituted aminomethyl spectinomycin analogs as antibacterial agents” (ST. JUDE CHILDREN'S RESEARCH HOSPITAL, INC., priority 2013, dated 2019).
# Counter-ions that a name gives are not always drawn. Like-named read-outs stand apart in the source and are kept apart here.
# Columns and labels:
# Type in all cases: cell-based
# [1] = tested on: Burkholderia cepacia (ATCC 25416); experiment: MIC determination, microbroth dilution; conditions: Burkholderia cepacia
# [2] = tested on: Streptococcus pneumoniae (R6); experiment: MIC determination, microbroth dilution; conditions: read-out: MIC S. pn.
# E. coli K12 ΔtolC = experiment: microbe, parasite or virus in culture; conditions: Escherichia coli, read-out: MIC E.c. Δtolc
# [3] = tested on: Neisseria meningitides (ATCC 13077); experiment: Disc diffusion assay; conditions: ATCC13077, 4 μg per disc, read-out: Zone of inhibition N.m.
# [4] = tested on: Haemophilus influenza (ATCC 49247); experiment: microbe, parasite or virus in culture; conditions: ATCC49247; Haemophilus influenza; 4 μg per disc; range of at least two experiments; read-out: Zone of inhibition H.i.
# [5] = tested on: acinetobacter baumannii (ATCC 19606); experiment: MIC determination, microbroth dilution; conditions: ATCC19606
# [6] = tested on: Stenotrophomonas maltophilia (ATCC 13637); experiment: MIC determination, microbroth dilution
# [7] = tested on: MRSA, Staphylococcus aureus (NRS70); experiment: MIC determination, microbroth dilution; conditions: Staphylococcus aureus (NRS70); read-out: MIC MRSA
# [8] = tested on: Neisseria gonorrhoeae (ATCC 49226); experiment: Disc diffusion assay; conditions: ATCC49226, 4 μg per disc, read-out: Zone of inhibition N.g.
# Moraxella catarrhalis = experiment: MIC determination (Table 6)
# [9] = tested on: Streptococcus pyogenes (ATCC 700294); experiment: MIC determination, microbroth dilution
# [10] = tested on: Escherichia coli (ATCC 700926); experiment: MIC determination, microbroth dilution; conditions: ATCC700926; Escherichia coli (ATCC 700926); read-out: MIC E.c.
# [11] = tested on: Proteus mirabilis (ATCC 25933); experiment: MIC determination, microbroth dilution; conditions: ATCC25933
# [12] = tested on: Bacillus anthracis, Sterne 34F2; experiment: microbe, parasite or virus in culture; conditions: STERNE34F2, read-out: MIC B.a.
# [13] = tested on: Proteus vulgaris (ATCC 33420); experiment: MIC determination, microbroth dilution; conditions: ATCC33420
# Listeria monocytogenes = experiment: MIC determination (Table 6)
# [14] = tested on: Klebsiella pneumoniae (ATCC 33495); experiment: MIC determination, microbroth dilution; conditions: ATCC33495
# [15] = tested on: M. tuberculosis clinical isolates; experiment: microbe, parasite or virus in culture; conditions: Mycobacterium tuberculosis, H37RV, read-out: MIC H37Rv
# Bacillus anthracis = experiment: microbe, parasite or virus in culture; conditions: read-out: MIC B.a.
# [16] = tested on: Bacillus subtilis (ATCC 23857); experiment: MIC determination, microbroth dilution; conditions: ATCC23857; Bacillus subtilis (ATCC 23857); read-out: MIC B.s.
# [17] = tested on: Enterococcus faecalis (ATCC 33186); experiment: MIC determination, microbroth dilution
# [18] = tested on: Legionella pneumophila (ATCC 33153); experiment: microbe, parasite or virus in culture; conditions: ATCC33153, 72 h, read-out: Zone of inhibition L.p.
# [19] = tested on: Neisseria gonorrhoeae (ATCC 49226); experiment: Agar MIC determination (Alamar Blue)
# [20] = tested on: Staphylococcus aureus (ATCC 29213); experiment: MIC determination, microbroth dilution; conditions: ATCC29213; Staphylococcus aureus (ATCC 29213); read-out: MIC S.a.
# [21] = tested on: Pseudomonas aeruginosa (PA01); experiment: MIC determination, microbroth dilution
# [22] = ATCC25416, read-out: MIC B.c., Burkholderia cepacia (ATCC 25416)
# [23] = ATCC25416, read-out: MIC B.c., Burkholderia cepacia, Table 6
# [24] = Stenotrophomonas maltophilia, ATCC13637, read-out: MIC S.m.
# [25] = ATCC700294, Streptococcus pyogenes (ATCC 700294), read-out: MIC S. py.
# [26] = ATCC33186, Enterococcus faecalis (ATCC 33186), read-out: MIC E.f.
# [27] = ATCC49226, agar MIC, read-out: MIC N.g.
# [28] = ATCC13637, Stenotrophomonas maltophilia (ATCC 13637), read-out: MIC S.m.
Compound,"MIC [1, 22] [µg/mL]","MIC [1, 23] [µg/mL]",MIC (E. coli K12 ΔtolC) [µg/mL],zone of inhibition at 4 µg/disc [3] [mm],zone of inhibition at 4 µg/disc [4] [mm],MIC [5] [µg/mL],MIC [7] [µg/mL],zone of inhibition at 4 µg/disc [8] [mm],MIC (Moraxella catarrhalis) [µg/mL],MIC [10] [µg/mL],MIC [11] [µg/mL],MIC [12] [µg/mL],MIC [13] [µg/mL],MIC (Listeria monocytogenes) [µg/mL],MIC [14] [µg/mL],MIC [15] [µg/mL],MIC (Bacillus anthracis) [µg/mL],MIC [16] [µg/mL],zone of inhibition at 4 µg/disc [18] [mm],MIC [20] [µg/mL],also measured
"CN[C@@H]1[C@H](O)[C@H](NC)[C@H]2O[C@]3(O)[C@H](O[C@@H]2[C@H]1O)O[C@H](C)C[C@@]3(O)CNCc1ccco1 [compound 8, 3′-(R)-3′-(2-furanylmethylaminomethyl)dihydrospectinomycin Trihydrochloride]",≥ 200,≥ 200,6.3 to 12.5,10,9,≥ 200,200,8,6.3,50,> 200,50,> 200,25,200,25,100,12.5,41,50,"MIC ([2]; Streptococcus pneumoniae (R6)): 12.5 µg/mL; MIC [6, 24]: 6.3 to 12.5 µg/mL; MIC [9, 25]: 12.5 to 25 µg/mL; MIC [17, 26]: 50 µg/mL; MIC [19, 27]: 50 µg/mL; MIC [21]: 200 µg/mL"
"CN[C@@H]1[C@H](O)[C@H](NC)[C@H]2O[C@]3(O)[C@H](O[C@@H]2[C@H]1O)O[C@H](C)C[C@@]3(O)CNCc1nccs1 [compound 19, 3′-(R)-3′-(2-thiazolylmethyl)aminomethyldihydrospectinomycin Tetrahydrobromide]",> 200,> 200,12.5 to 25,13,10,> 200,> 200,9,12.5,200,> 200,100,> 200,25,> 200,100,100,100,39,100,"MIC ([2]; Streptococcus pneumoniae (R6)): 12.5 µg/mL; MIC [6, 28]: 25 to 50 µg/mL; MIC [9, 25]: 12.5 µg/mL; MIC [17, 26]: 50 µg/mL; MIC [19, 27]: 100 µg/mL; MIC [21]: > 200 µg/mL"
"CN[C@@H]1[C@H](O)[C@H](NC)[C@H]2O[C@]3(O)[C@H](O[C@@H]2[C@H]1O)O[C@H](C)C[C@@]3(O)CNCc1ccc(C(F)(F)F)cc1 [compound 5, 3′-(R)-3′-[(4-trifluoromethyl)benzylaminomethyl)]dihydrospectinomycin Trihydrochloride]",100,100,6.3 to 12.5,21,17 to 18,≥ 200,25,18,3.1 to 6.3,50,> 200,25 to 50,> 200,12.5,100,25,25 to 50,6.3,27 to 28,50,"MIC ([2]; Streptococcus pneumoniae (R6)): 1.6 µg/mL; MIC [6, 28]: 25 µg/mL; MIC [9, 25]: 1.6 µg/mL; MIC [17, 26]: 12.5 to 25 µg/mL; MIC [19, 27]: 100 µg/mL; MIC [21]: 200 µg/mL"
"CN[C@@H]1[C@H](O)[C@H](NC)[C@H]2O[C@]3(O)[C@H](O[C@@H]2[C@H]1O)O[C@H](C)C[C@@]3(O)CNCc1cccnc1 [compound 7, 3′-(R)-3′-(3-pyridinylmethylaminomethyl)dihydrospectinomycin Tetrahydrobromide]",≥ 200,≥ 200,12.5 to 25,9,7,≥ 200,> 200,7,6.3,50,> 200,100,> 200,25,> 200,50 to 100,100,100,42,≥ 200,"MIC ([2]; Streptococcus pneumoniae): 12.5 to 25 µg/mL; MIC [6, 28]: 100 µg/mL; MIC [9, 25]: 25 µg/mL; MIC [17, 26]: 200 µg/mL; MIC [19, 27]: 200 µg/mL; MIC [21]: > 200 µg/mL"
"CN[C@@H]1[C@H](O)[C@H](NC)[C@H]2O[C@]3(O)[C@H](O[C@@H]2[C@H]1O)O[C@H](C)C[C@@]3(O)CNCc1ccncc1 [compound 9, 3′-(R)-3′-(4-pyridinylmethylaminomethyl)dihydrospectinomycin Tetrahydrobromide]",> 200,> 200,12.5,6,8,≥ 200,≥ 200,6,12.5,50,> 200,100 to 200,> 200,100,> 200,200,100 to 200,200,28,≥ 200,"MIC ([2]; Streptococcus pneumoniae (R6)): 25 to 50 µg/mL; MIC [6, 28]: 200 µg/mL; MIC [9, 25]: 25 to 50 µg/mL; MIC [17, 26]: > 200 µg/mL; MIC [19, 27]: ≥ 200 µg/mL; MIC [21]: ≥ 200 µg/mL"
"CN[C@@H]1[C@H](O)[C@H](NC)[C@H]2O[C@]3(O)[C@H](O[C@@H]2[C@H]1O)O[C@H](C)C[C@@]3(O)CNCc1ccc(Cl)s1 [compound 21, 3′-(A′)-3′-[(5-Chloro)-2-thiophenylmethylaminomethyl)dihydrospectinomycin Trihydrobromide]",200,200,12.5,19,13,> 200,200,20,0.8,50,> 200,50,≥ 200,6.3,> 200,100,50,25 to 50,22,25 to 50,"MIC ([2]; Streptococcus pneumoniae (R6)): 3.1 µg/mL; MIC [6, 24]: 12.5 µg/mL; MIC [9, 25]: 1.6 µg/mL; MIC ([17]; Enterococcus faecalis, ATCC33186, read-out: MIC E.f.): 12.5 µg/mL; MIC ([19]; ATCC49226, read-out: MIC N.g.): 12.5 to 25 µg/mL; MIC [21]: > 200 µg/mL"
"CN[C@@H]1[C@H](O)[C@H](NC)[C@H]2O[C@]3(O)[C@H](O[C@@H]2[C@H]1O)O[C@H](C)C[C@@]3(O)CNCc1cccs1 [compound 17, 3′-(R)-3′-(2-thiophenylmethylaminomethyl)dihydrospectinomycin Trihydrochloride]",> 200,> 200,6.3 to 12.5,15,13,> 200,100 to 200,11,3.1,50,> 200,50,200,12.5,200,25,50,25,41,50,"MIC ([2]; Streptococcus pneumoniae (R6)): 12.5 µg/mL; MIC [6, 28]: 6.3 µg/mL; MIC ([9]; Streptococcus pyogenes, ATCC700294, read-out: MIC S. py.): 6.3 to 12.5 µg/mL; MIC [17, 26]: 50 µg/mL; MIC [19, 27]: 50 µg/mL; MIC [21]: ≥ 200 µg/mL"
